Experimental data taken from the supplement of paper PMC11061612.

Assays:
Assay in all cases: combination Emax (second highest fraction inhibited in the dose matrix, 72 h); higher = more inhibition; extreme values may be limits of the assay
[1] = tested on: OACp4C (Esophageal Adenocarcinoma)
In short: (§1)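 After 24 hours at 37°C and 5% CO2 in 1536-well plates, cells in DMEM/F12 or RPMI plus 10% FBS received two-drug dose matrices for 72 hours. Viability came from CellTiter-Glo 2.0 luminescence and was scaled as inhibition, anchored at 0 by vehicle wells and at 1 by blank wells. Combination Emax is taken as the second-highest inhibition in the matrix, and Bliss excess as the observed combination effect less EA + EB − EA·EB, with EA and EB the single-agent effects.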

[2] = tested on: GCT (Other Solid Carcinomas)
In short: as §1

[3] = tested on: GA-10 (Burkitt's Lymphoma)
In short: as §1

[4] = tested on: G-402 (Other Solid Carcinomas)
In short: as §1

[5] = tested on: COLO-792 (Melanoma)
In short: as §1

[6] = tested on: DU-4475 (Breast Carcinoma)
In short: as §1

[7] = tested on: KP-N-YN (Neuroblastoma)
In short: as §1

[8] = tested on: NCI-H441 (Lung Adenocarcinoma)
In short: as §1

[9] = tested on: NCI-H716 (Colorectal Carcinoma)
In short: as §1

[10] = tested on: 22RV1 (Prostate Carcinoma)
In short: as §1

[11] = tested on: PEO1 (Ovarian Carcinoma)
In short: as §1

[12] = tested on: LU-165 (Small Cell Lung Carcinoma)
In short: as §1

[13] = tested on: huH-1 (Hepatocellular Carcinoma)
In short: as §1

[14] = tested on: RH-41 (Rhabdomyosarcoma)
In short: as §1

[15] = tested on: IM-9 (Non-Cancerous)
In short: as §1

[16] = tested on: EB2 (Burkitt's Lymphoma)
In short: as §1

[17] = tested on: Jurkat (T-Lymphoblastic Leukemia)
In short: as §1

[18] = tested on: A253 (Head and Neck Carcinoma)
In short: as §1

[19] = tested on: EW-16 (Ewing's Sarcoma)
In short: as §1

[20] = tested on: JHH-2 (Hepatocellular Carcinoma)
In short: as §1

| SMILES | combination Emax [1] | combination Emax [2] | combination Emax [3] | combination Emax [4] | combination Emax [5] | combination Emax [6] | combination Emax [7] | combination Emax [8] | combination Emax [9] | combination Emax [10] | combination Emax [11] | combination Emax [12] | combination Emax [13] | combination Emax [14] | combination Emax [15] | combination Emax [16] | combination Emax [17] | combination Emax [18] | combination Emax [19] | combination Emax [20] |
| --- | --- | --- | --- | --- | --- | --- | --- | --- | --- | --- | --- | --- | --- | --- | --- | --- | --- | --- | --- | --- |
| CN(C)CCCOc1ccc(-c2ccc3ncc4c(c3c2)n(C2CCOCC2)c(=O)n4C)cn1 [AZD0156] + C=CCn1c(=O)c2cnc(Nc3ccc(N4CCN(C)CC4)cc3)nc2n1-c1cccc(C(C)(C)O)n1 [AZD1775] (first compound max 1 µM, partner max 1 µM) | 0.83 | 0.413 | 0.988 | 0.363 | 0.538 | 0.924 | 0.95 | 0.329 | 0.482 | 0.346 | 0.341 | 0.38 | 0.592 | 0.948 | 0.986 | 0.841 | 0.879 | 0.327 | 0.307 | 0.53 |
| CN(C)CCCOc1ccc(-c2ccc3ncc4c(c3c2)n(C2CCOCC2)c(=O)n4C)cn1 [AZD0156] + CCN(CCO)CCCOc1ccc2c(Nc3cc(CC(=O)Nc4cccc(F)c4)[nH]n3)ncnc2c1 [AZD2811] (first compound max 1 µM, 7x7, partner max 1 µM) | 0.598 | 0.161 | 0.808 | 0.532 | 0.358 | 0.392 | 0.486 | 0.112 | 0.45 | 0.267 | 0.157 | 0.114 | 0.317 | 0.235 | 0.944 | 0.416 | 0.309 | 0.212 | 0.423 | 0.287 |
| CN(C)CCCOc1ccc(-c2ccc3ncc4c(c3c2)n(C2CCOCC2)c(=O)n4C)cn1 [AZD0156] + C[C@@H]1COCCN1C2=NC(=NC(=C2)C3(CC3)[S@](=N)(=O)C)C4=C5C=CNC5=NC=C4 [AZD6738] (first compound max 1 µM, 7x7, partner max 10 µM) | 0.724 | 0.231 | 1 | 0.534 | 0.273 | 0.913 | 0.973 | 0.435 | 0.667 | 0.524 | 0.533 | 0.233 | 0.821 | 0.874 | 0.976 | 0.774 | 0.898 | 0.794 | 0.695 | 0.597 |
| CN(C)CCCOc1ccc(-c2ccc3ncc4c(c3c2)n(C2CCOCC2)c(=O)n4C)cn1 [AZD0156] + O=C(c1cc(Cc2n[nH]c(=O)c3ccccc23)ccc1F)N1CCN(C(=O)C2CC2)CC1 [Olaparib] (first compound max 3 µM, partner max 3 µM) | 0.406 | 0.282 | 0.741 | 0.41 | 0.294 | 0.434 | – | 0.328 | 0.225 | 0.483 | 0.122 | 0.21 | 0.174 | 0.586 | 0.656 | 0.496 | 0.511 | 0.186 | 0.412 | 0.319 |
| C=CCn1c(=O)c2cnc(Nc3ccc(N4CCN(C)CC4)cc3)nc2n1-c1cccc(C(C)(C)O)n1 [AZD1775] + C1CN(CCC1(C(=O)N[C@@H](CCO)C2=CC=C(C=C2)Cl)N)C3=NC=NC4=C3C=CN4 [Capivasertib] (first compound max 3 µM, partner max 3 µM) | 0.889 | 0.623 | 0.964 | 0.619 | 0.651 | 0.998 | – | 0.454 | 0.727 | 0.616 | 0.773 | 0.536 | 0.666 | 0.801 | 1 | 0.822 | 0.986 | 0.848 | 0.888 | 0.625 |
| C=CCn1c(=O)c2cnc(Nc3ccc(N4CCN(C)CC4)cc3)nc2n1-c1cccc(C(C)(C)O)n1 [AZD1775] + C[C@@H]1COCCN1C2=NC(=NC(=C2)C3(CC3)[S@](=N)(=O)C)C4=C5C=CNC5=NC=C4 [AZD6738] (first compound max 1 µM, partner max 10 µM) | 0.831 | 0.552 | 1 | 0.674 | 0.474 | 1 | – | 0.536 | 0.623 | 0.636 | 0.6 | 0.48 | 0.794 | 0.995 | 0.999 | 0.88 | 0.991 | 0.863 | 0.771 | 0.737 |
| C=CCn1c(=O)c2cnc(Nc3ccc(N4CCN(C)CC4)cc3)nc2n1-c1cccc(C(C)(C)O)n1 [AZD1775] + O=C(c1cc(Cc2n[nH]c(=O)c3ccccc23)ccc1F)N1CCN(C(=O)C2CC2)CC1 [Olaparib] (first compound max 1 µM, partner max 10 µM) | 0.806 | 0.501 | 0.981 | 0.41 | 0.284 | 0.933 | 0.723 | 0.472 | 0.378 | 0.323 | 0.384 | 0.342 | 0.634 | 0.953 | 0.986 | 0.848 | 0.842 | 0.35 | 0.529 | 0.574 |
| CCN(CCO)CCCOc1ccc2c(Nc3cc(CC(=O)Nc4cccc(F)c4)[nH]n3)ncnc2c1 [AZD2811] + C=CCn1c(=O)c2cnc(Nc3ccc(N4CCN(C)CC4)cc3)nc2n1-c1cccc(C(C)(C)O)n1 [AZD1775] (first compound max 1 µM, partner max 1 µM) | 0.809 | 0.292 | 0.992 | 0.526 | 0.396 | 0.948 | 0.913 | 0.343 | 0.562 | 0.234 | 0.278 | 0.333 | 0.696 | 0.961 | 0.999 | 0.77 | 0.798 | 0.407 | 0.41 | 0.574 |
| CCN(CCO)CCCOc1ccc2c(Nc3cc(CC(=O)Nc4cccc(F)c4)[nH]n3)ncnc2c1 [AZD2811] + C[C@@H]1COCCN1C2=NC(=NC(=C2)C3(CC3)[S@](=N)(=O)C)C4=C5C=CNC5=NC=C4 [AZD6738] (first compound max 1 µM, 7x7, partner max 10 µM) | 0.733 | 0.242 | 0.978 | 0.606 | 0.418 | 0.944 | 0.957 | 0.407 | 0.515 | 0.566 | 0.553 | 0.38 | 0.712 | 0.706 | 0.981 | 0.746 | 0.865 | 0.756 | 0.758 | 0.62 |
| CN(CCO)CC[C@H](CSc1ccccc1)Nc1ccc(S(=O)(=O)NC(=O)c2ccc(N3CCC([C@@H](O)c4ccccc4-c4ccc(Cl)cc4)CC3)cc2)cc1S(=O)(=O)C(F)(F)F [AZD4320] + CN(C)CCCOc1ccc(-c2ccc3ncc4c(c3c2)n(C2CCOCC2)c(=O)n4C)cn1 [AZD0156] (first compound max 1 µM, 7x7, partner max 1 µM) | 0.851 | 0.239 | 0.303 | 0.401 | 0.856 | 0.871 | – | 0.286 | 0.195 | 0.385 | 0.45 | 0.526 | 0.122 | 0.85 | 0.459 | 0.253 | 0.478 | 0.173 | 0.406 | 0.194 |
| Cc1c2c(nn1C)CSCc1cc(n(C)n1)CSc1cc(c3ccccc3c1)OCCCc1c(C(=O)O)n(C)c3c-2c(Cl)ccc13 [AZD5991] + CCN(CCO)CCCOc1ccc2c(Nc3cc(CC(=O)Nc4cccc(F)c4)[nH]n3)ncnc2c1 [AZD2811] (first compound max 1 µM, 7x7, partner max 1 µM) | 0.827 | 0.416 | 0.923 | 0.946 | 0.977 | 0.378 | – | 0.31 | 0.349 | 0.399 | 0.321 | 0.307 | 0.387 | 1 | 1 | 0.342 | 0.919 | 0.896 | 0.808 | 0.325 |
| Cc1c2c(nn1C)CSCc1cc(n(C)n1)CSc1cc(c3ccccc3c1)OCCCc1c(C(=O)O)n(C)c3c-2c(Cl)ccc13 [AZD5991] + CN(C)CCCOc1ccc(-c2ccc3ncc4c(c3c2)n(C2CCOCC2)c(=O)n4C)cn1 [AZD0156] (first compound max 1 µM, 7x7, partner max 1 µM) | 0.469 | 0.502 | 0.776 | 0.965 | 1 | 0.244 | 0.252 | 0.246 | 0.294 | 0.476 | 0.15 | 0.286 | 0.24 | 1 | 0.608 | 0.42 | 0.928 | 0.908 | 0.29 | – |
| CCc1c2c(nc3ccc(O)cc13)-c1cc3c(c(=O)n1C2)COC(=O)[C@]3(O)CC [SN-38] + O=C(c1cc(Cc2n[nH]c(=O)c3ccccc23)ccc1F)N1CCN(C(=O)C2CC2)CC1 [Olaparib] (first compound max 0.3 µM, 7x7, partner max 10 µM) | 0.637 | 0.753 | – | 0.829 | 0.484 | 0.942 | 0.491 | 0.709 | – | 0.697 | 0.725 | 0.478 | 0.794 | – | 1 | 0.932 | – | 0.938 | 0.981 | 0.618 |
